Each structure is given as a SMILES string. pIC50: −log10 of the molar value.

The target of the assay is human D-amino acid oxidase (hDAAO) (Homo sapiens (Human), UniProt P14920). The assay can be described thus: In vitro human D-amino acid oxidase (hDAAO) activity, D-Serine/Amplex Red fluorescence. The format is biochemical. The following applies: D-Serine substrate, 20 min. How it is done:
The hDAAO inhibitory activities were measured by using D-Serine as a substrate to produce H2O2. The produced H2O2 would be oxidized by peroxidase, and the produced free radicals would further react with Amplex Red reagent to emit fluorescence. The intensity of fluorescence at 590 nm would be measured to represent the activity of hDAAO. All compounds were dissolved in DMSO. Each compound was diluted with DMSO in 3-fold serial dilution to create a dose response curve. Each sample was added in triplicate, 1 µL/well, into 96-well black plates. Positive control wells were added with 1 μL of DMSO. Then 49 μL of assay buffer (100 mM Tris-HCl, pH 8.5) containing 1.2 ng/mL hDAAO, 900 nM FAD, 0.2 units/mL HRP, and 100 μM Amplex Red was added to each well of the plate using a multichannel pipette. Next, 50 μL of 100 mM D-Serine in assay buffer was added. The reaction plates were then incubated in the dark at room temperature. The fluorescence readout was detected at 0 and 20 mins by Molecular Device Gemini EM fluorescence reader using the following settings: excitation filter 530 nm, and emission filter 590 nm. The percentage of inhibition values for each well was calculated with the following equation: The percentage of inhibition=(fluorescence sample, 20 min−fluorescence sample, 0 min)/(fluorescence DMSO, 20 min−fluorescence DMSO, 0 min)×100%
The nonlinear curve fitting model in GraphPad Prism was used to calculate IC50 value for each compound.

human D-amino acid oxidase (hDAAO), sequence (P14920 whole entry): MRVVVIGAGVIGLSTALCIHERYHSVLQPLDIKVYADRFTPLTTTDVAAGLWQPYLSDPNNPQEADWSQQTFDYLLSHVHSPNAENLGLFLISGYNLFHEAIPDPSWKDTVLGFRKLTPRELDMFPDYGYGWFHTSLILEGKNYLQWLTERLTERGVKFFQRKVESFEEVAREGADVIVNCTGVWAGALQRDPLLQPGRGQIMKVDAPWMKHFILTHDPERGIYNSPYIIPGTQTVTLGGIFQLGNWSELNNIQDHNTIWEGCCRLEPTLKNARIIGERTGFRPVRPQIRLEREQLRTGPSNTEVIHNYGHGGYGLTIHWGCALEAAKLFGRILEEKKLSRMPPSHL

As for `O=C(OC[C@H]1O[C@H](OC(=O)c2cc(O)c(O)c(OC(=O)c3cc(O)c(O)c(OC(=O)c4cc(O)c(O)c(OC(=O)c5cc(O)c(O)c(OC(=O)c6cc(O)c(O)c(O)c6)c5)c4)c3)c2)[C@H](OC(=O)c2cc(O)c(O)c(OC(=O)c3cc(O)c(O)c(OC(=O)c4cc(O)c(O)c(OC(=O)c5cc(O)c(O)c(OC(=O)c6cc(O)c(O)c(O)c6)c5)c4)c3)c2)[C@@H]1OC(=O)c1cc(O)c(O)c(OC(=O)c2cc(O)c(O)c(OC(=O)c3cc(O)c(O)c(OC(=O)c4cc(O)c(O)c(OC(=O)c5cc(O)c(O)c(O)c5)c4)c3)c2)c1)c1cc(O)c(O)c(OC(=O)c2cc(O)c(O)c(OC(=O)c3cc(O)c(O)c(OC(=O)c4cc(O)c(O)c(OC(=O)c5cc(O)c(O)c(O)c5)c4)c3)c2)c1` [Compound 140, (2R,3R,4R,5R)-5-(((3-((3-((3-((3,4-dihydroxy-5-((3,4,5-trihydroxybenzoyl)oxy)benzoyl)oxy)-4,5-dihydroxybenzoyl)oxy)-4,5-dihydroxybenzoyl)oxy)-4,5-dihydroxybenzoyl)oxy)methyl)tetrahydrofuran-2,3,4-triyl tris(3-((3-((3-((3,4-dihydroxy-5-((3,4,5-trihydroxybenzoyl)oxy)benzoyl)oxy)-4,5-dihydroxybenzoyl)oxy)-4,5-dihydroxybenzoyl)oxy)-4,5-dihydroxybenzoate)], the negative logarithm of the IC50 (pIC50) is 8.52.
To `O=C(OC[C@H]1O[C@@H](OC(=O)c2cc(O)c(O)c(OC(=O)c3cc(O)c(O)c(O)c3)c2)[C@H](OC(=O)c2cc(O)c(O)c(OC(=O)c3cc(O)c(O)c(O)c3)c2)[C@@H]1OC(=O)c1cc(O)c(O)c(OC(=O)c2cc(O)c(O)c(O)c2)c1)c1cc(O)c(O)c(OC(=O)c2cc(O)c(O)c(O)c2)c1` [Compound 142, (2S,3R,4R,5R)-5-(((3,4-dihydroxy-5-((3,4,5-trihydroxybenzoyl)oxy)benzoyl)oxy)methyl)tetrahydrofuran-2,3,4-triyl tris(3,4-dihydroxy-5-((3,4,5-trihydroxybenzoyl)oxy)benzoate)] belongs 7.72; to `O=C(OC[C@H]1O[C@@H](OC(=O)c2cc(O)c(O)c(OC(=O)c3cc(O)c(O)c(OC(=O)c4cc(O)c(O)c(O)c4)c3)c2)[C@H](OC(=O)c2cc(O)c(O)c(OC(=O)c3cc(O)c(O)c(OC(=O)c4cc(O)c(O)c(O)c4)c3)c2)[C@@H]1OC(=O)c1cc(O)c(O)c(OC(=O)c2cc(O)c(O)c(OC(=O)c3cc(O)c(O)c(O)c3)c2)c1)c1cc(O)c(O)c(OC(=O)c2cc(O)c(O)c(OC(=O)c3cc(O)c(O)c(O)c3)c2)c1` [Compound 144, (2S,3R,4R,5R)-5-(((3-((3,4-dihydroxy-5-((3,4,5-trihydroxybenzoyl)oxy)benzoyl)oxy)-4,5-dihydroxybenzoyl)oxy)methyl)tetrahydrofuran-2,3,4-triyl tris(3-((3,4-dihydroxy-5-((3,4,5-trihydroxybenzoyl)oxy)benzoyl)oxy)-4,5-dihydroxybenzoate)], 8.10.
The compound `O=C(OC[C@H]1O[C@@H](OC(=O)c2cc(O)c(O)c(OC(=O)c3cc(O)c(O)c(OC(=O)c4cc(O)c(O)c(OC(=O)c5cc(O)c(O)c(O)c5)c4)c3)c2)[C@H](OC(=O)c2cc(O)c(O)c(OC(=O)c3cc(O)c(O)c(OC(=O)c4cc(O)c(O)c(OC(=O)c5cc(O)c(O)c(O)c5)c4)c3)c2)[C@@H]1OC(=O)c1cc(O)c(O)c(OC(=O)c2cc(O)c(O)c(OC(=O)c3cc(O)c(O)c(OC(=O)c4cc(O)c(O)c(O)c4)c3)c2)c1)c1cc(O)c(O)c(OC(=O)c2cc(O)c(O)c(OC(=O)c3cc(O)c(O)c(OC(=O)c4cc(O)c(O)c(O)c4)c3)c2)c1` [Compound 146, (2S,3R,4R,5R)-5-(((3-((3-((3,4-dihydroxy-5-((3,4,5-trihydroxybenzoyl)oxy)benzoyl)oxy)-4,5-dihydroxybenzoyl)oxy)-4,5-dihydroxybenzoyl)oxy)methyl)tetrahydrofuran-2,3,4-triyl tris(3-((3-((3,4-dihydroxy-5-((3,4,5-trihydroxybenzoyl)oxy)benzoyl)oxy)-4,5-dihydroxybenzoyl)oxy)-4,5-dihydroxybenzoate)] showed a pIC50 of 8.40.

As a reminder, the pIC50 is −log10 of the IC50, conventionally taken in molar units. A lower pIC50 goes with a high IC50.

The values are drawn from patent US11793823B2, “Compounds and pharmaceutical uses thereof” (SyneuRx International (Taiwan) Corp., priority 2020, dated 2023).
